# Earlier results as cited in PMC10338470, “Phase 1 study of GSK3368715, a type I PRMT inhibitor, in patients with advanced solid tumors” (British Journal of Cancer, 2023).
# Tested on: adenoid cystic carcinoma
# Set-up: method as in doi:10.1016/j.annonc.2020.08.651
# Details: patients with adenoid cystic carcinoma ref [18]; cited from earlier work
smiles,measurement,value
Nc1nc2cc(CC[C@H]3C[C@@H](n4ccc5c(N)ncnc54)[C@H](O)[C@@H]3O)ccc2cc1Br [JNJ64619178],Partial response rate,13%
